# Measurements from patent EP0393640B1, “A monoclonal antibody recognizing C-terminus of ANP” (SHIONOGI SEIYAKU KABUSHIKI KAISHA trading under the name of …, priority 1989, dated 1990).
# Ends that are not written are not given here.
# How the values were obtained:
# Assay type in all cases: binding, mouse
# [1] = test system: AN111 as an immobilized antibody, ¹²⁵I-labelled KY-ANP-I; assay: Cross-reactivity of ANP-related peptides in the sandwich radioimmunoassay (one-step); settings: one-step assay, AN111 immobilized on beads
# From the text: Anti-α-ANP [17-28] monoclonal antibody produced by the above hybridoma clone AN111 or AN117 (the antibody is hereinafter referred to as AN111 or AN117) which was immobilized on beads was used as an immobilized antibody. As a labelled antibody, anti-α-hANP [1 -28] monoclonal antibody produced by hybridoma clone KY-ANP-I (ECACC 87082001, EP-A-0 306 309) (the antibody is hereinafter referred to as KY-ANP-I) which was labelled with 125I was used. By the above antibodies, a sandwich radioimmunoassay of α-hANP was established. In 0.05 M phosphate buffer (pH 7.4) containing the IgG fraction (100 »g/ml) of A[…] or A[…] prepared in Item 1 above are immersed polystyrene beads (Ichico, 3.2 mm diameter) and allowed to stand at 4 °C for 20 hr. […] Radioactivity of 125 I -labelled antibody bound to the solid phase was measured by a gamma counter. A standard curve was prepared by plotting a concentration of α-hANP standard at abscissa and the measured radioactivity at ordinate. An ANP concentration in plasma was calculated by applying the radioactivity from the plasma sample to the standard curve. […]
# AN117 = assay: Cross-reactivity of ANP-related polypeptides in the α-hANP radioimmunoassay with AN117; settings: ascitic fluid AN117A
# Experimental: (§1) Using peptide and peptide fragment relating to α-hANP as a sample in α-hANP radioimmunoassay to be described in Example 5, cross reactivity was measured. It was confirmed that both of AN111 and AN117 recognize the C-terminus of α-hANP. Table 1 Assay buffer solution : 0.1 M phosphate buffer solution (pH 7.0) containing 0.372 g of disodium ethylenediamine tetraacetate, 0.063 g of cystine dihydrochloride, 0.262 g of ε-aminocaproic acid, 0.1g of sodium azide and 1 g of bovine serum albumin per liter. Dilute ascitic fluid : A[…] 110,000-fold diluted with Assay buffer solution or A[…] 62,000-fold diluted with Assay buffer solution. α-hANP standard : α-hANP serially two-fold diluted at a range of concentrations from 3.13 ng/ml to 100 ng/ml. 125 I -labelled α-hANP : 125I-labelled α-hANP (Amersham) diluted with Assay buffer solution up to approximately 3.7 KBq/ml. 1 % Bovine gamma globulin : dissolved in Assay buffer solution 37.5 % Polyethylene glycol : polyethylene glycol 6000 dissolved in Assay buffer solution without bovine serum albumin To a tube charged with 100 »l of α-hANP standard or a sample, 100 »l of 125I-labelled α-hANP, 100 »l of dilute ascitic fluid and 200 »l of 1 % bovine gamma globulin were added and the mixture was incubated overnight at 4 °C. […] After removing the supernatant, the radioactivity of the precipitate is measured by a gamma counter (Aloka, ARC-600 type)
# AN111 = assay: Cross-reactivity of ANP-related polypeptides in the α-hANP radioimmunoassay with AN111; settings: ascitic fluid AN111A
# Experimental: as §1
substance,measurement,setting,value
"β-hANP: antiparallel dimer of α-hANP (SLRRSSCFGGRMDRIGAQSGLGCNSFRY; ends and bridges not checked; also: antiparallel dimer of α-hANP; UniProt P01160 124-151, looked up)",Cross-Reactivity (Molar %),[1],100 Molar %
same,Cross-reactivity (%) AN117,AN117,136%
same,Cross-reactivity (%) AN111,AN111,142%
